Non-standard residues stand in square brackets, D forms with d. Primed or numbered codes have the meaning given here. No end group written: not given here. *: point of attachment. Myristoyl = CCCCCCCCCCCCCC(=O)*; PEG24′ = not defined here; Nle = CCCC[C@H](N)C(=O)O; Cbz = O=C(OCc1ccccc1)*
Test system: ApoB
Test: Knockdown of endogenous serum ApoB in mice after co-injection of masked melittin delivery peptide and ApoB siRNA-cholesterol conjugate
Format: in vivo
Description: RNAi polynucleotide conjugates and masked melittin peptides were synthesized as described above. Six to eight week old mice (strain C57BL/6 or ICR, ˜18-20 g each) were obtained from Harlan Sprague Dawley (Indianapolis Ind.). Mice were housed at least 2 days prior to injection. Feeding was performed ad libitum with Harlan Teklad Rodent Diet (Harlan, Madison Wis.). Mice were injected with 0.2 mL solution of delivery peptide and 0.2 mL siRNA conjugates into the tail vein. For simultaneous injection of delivery peptide and siRNA, the siRNA-conjugate was added to modified peptide prior to injection and the entire amount was injected. The composition was soluble and nonaggregating in physiological conditions. Solutions were injected by infusion into the tail vein.
Mice were fasted for 4 h (16 h for rats) before serum collection by submandibular bleeding. For rats blood was collected from the jugular vein. Serum ApoB protein levels were determined by standard sandwich ELISA methods. Briefly, a polyclonal goat anti-mouse ApoB antibody and a rabbit anti-mouse ApoB antibody (Biodesign International) were used as capture and detection antibodies respectively. An HRP-conjugated goat anti-rabbit IgG antibody (Sigma) was applied afterwards to bind the ApoB/antibody complex. Absorbance of tetramethyl-benzidine (TMB, Sigma) colorimetric development was then measured by a Tecan Safire2 (Austria, Europe) microplate reader at 450 nm.
Melittin was reversibly modified with CDM-NAG as described above. The indicated amount of melittin was then co-injected with the 200 μg ApoB siRNA-cholesterol conjugate. Effect on ApoB levels were determined as described above.
Melittin was reversibly modified with CDM-NAG as described above. The indicated amount of melittin was then co-injected with 50 μg ApoB siRNA-cholesterol conjugate. Effect on ApoB levels were determined as described above.
Melittin was reversibly modified with CDM-NAG (5×) as described above. The indicated amount of melittin was then co-injected with the indicated amount of ApoB siRNA-cholesterol conjugate. Effect on ApoB levels were determined as described above.
Melittin was reversibly modified with the indicated amount of CDM-NAG as described above. 50 μg melittin was then co-injected with the 100 μg ApoB siRNA-cholesterol conjugate. Effect on ApoB levels were determined as described above.
Melittin peptides having the indicated sequence were reversibly modified with CDM-NAG (5×) as described above. The indicated amount of melittin was then co-injected with the indicated amount of ApoB siRNA-cholesterol conjugate. Effect on ApoB levels were determined as described above.
Melittin peptides containing the indicated PEG amino terminal modifications were synthesized as described above. The PEG amino terminal modified melittin peptides were then reversibly modified with 5×CDM-NAG as described above. The indicated amount of Melittin was then co-injected with the 100-200 μg ApoB siRNA-cholesterol conjugate. Effect on ApoB levels were determined as described above. Addition of PEG less than 5 kDa in size decreased toxicity of the melittin peptides.

[1] = CDM-NAG (5×), 200 μg peptide per mouse, 200 μg siRNA per mouse
[2] = CDM-NAG (5×), 400 μg peptide per mouse, 200 μg siRNA per mouse
[3] = CDM-NAG (5×), 400 μg peptide per mouse, 100 μg siRNA per mouse
[4] = CDM-NAG (5×), 80 μg peptide per mouse, 100 μg siRNA per mouse
[5] = CDM-NAG (5×), 100 μg peptide per mouse, 100 μg siRNA per mouse
[6] = CDM-NAG (5×), 50 μg peptide per mouse, 100 μg siRNA per mouse
[7] = CDM-NAG (5×), 100 μg peptide per mouse, 50 μg siRNA per mouse

## G1W (Seq ID 10): melittin peptide derivative (WIGAILKVLATGLPTLISWIKNKRKQ; melittin-like peptide derive from Apis florea)
[1]
  percent knockdown: 96%

## Ac-CIGAVLKVLTTGLPALISWIKRKRQQ-NH2
[2]
  percent knockdown: 85%

## Leu-Melittin (Seq ID 7) L form: G1L melittin peptide, L form amino acids (LIGAILKVLATGLPTLISWIKNKRKQ; melittin-like peptide derive from Apis florea)
1× CDM-NAG, 100 μg siRNA, 50 μg peptide
  % knockdown: 74%
2× CDM-NAG, 100 μg siRNA, 50 μg peptide
  % knockdown: 88%
5× CDM-NAG, 50 μg siRNA, 25 μg peptide
  % knockdown: 15%
5× CDM-NAG, 50 μg siRNA, 50 μg peptide
  % knockdown: 70%
5× CDM-NAG, 50 μg siRNA, 100 μg peptide
  % knockdown: 90%
5× CDM-NAG, 50 μg siRNA, 200 μg peptide
  % knockdown: 90%
5× CDM-NAG, 50 μg siRNA, 400 μg peptide
  % knockdown: 90%
5× CDM-NAG, 100 μg siRNA, 50 μg peptide
  % knockdown: 82%
5× CDM-NAG, no PEG modification, 25 μg peptide, 100 μg siRNA
  percent knockdown: 0%
5× CDM-NAG, no PEG modification, 50 μg peptide, 100 μg siRNA
  percent knockdown: 72%
5× CDM-NAG, no PEG modification, 100 μg peptide, 100 μg siRNA
  percent knockdown: 94%

## G1Y-Mel-NH2 (Seq ID 110): melittin peptide derivative (YIGAILKVLATGLPTLISWIKNKRKQ-NH2)
[1]
  percent knockdown: 94%

## QQRKRKIWSILAPLGTTLVKLVAGIC-(N-PDP-PE)-NH2 (not fully specified (some residues, C-terminus); also: D-amino acids, positions not given here) [PE = dioleolyl-phosphatidyl-ethanolamine]
[2]
  percent knockdown: 55%

## G1Y dMel-GFKGC (Seq ID 68): melittin peptide derivative ([dY][dI]G[dA][dI][dL][dK][dV][dL][dA][dT]G[dL][dP][dT][dL][dI][dS][dW][dI][dK][dN][dK][dR][dK][dQ]GFKGC)
[3]
  percent knockdown: 96%

## myristoyl-CKLK-Mel G1L (Seq ID 111): melittin peptide derivative (Myristoyl-CKLKLIGAILKVLATGLPTLISWIKNKRKQ)
[4]
  percent knockdown: 96%

## G1L, K21A (Seq ID 28): melittin peptide derivative (YIGAILKVLATGLPTLISWIANKRKQ; melittin-like peptide derive from Apis florea)
[5]
  percent knockdown: 95%

## G1L retro-dMel-KLK-PEG(5k) (Seq ID 115): melittin peptide derivative (KLK[dQ][dK][dR][dK][dN][dK][dI][dW][dS][dI][dL][dT][dP][dL]G[dT][dA][dL][dV][dK][dL][dI][dA]G[dI][dL]; also: PEG 5k conjugated)
[5]
  percent knockdown: 32%

## G1L, S18C (Seq ID 25): melittin peptide derivative (LIGAILKVLATGLPTLICWIKNKRKQ; melittin-like peptide derive from Apis florea)
[5]
  percent knockdown: 93%

## QQRKRKIWSILAALGTTLVKLVAGIC-NH2 [Seq ID 95]
CDM-NAG (5×), siRNA 20 mg/kg
  percent knockdown: 91%

## CBZ-Mel (Seq ID 108): melittin peptide derivative (Cbz-GIGAILKVLATGLPTLISWIKNKRKQ)
CDM-NAG (5×), 100 μg peptide per mouse, 80 μg siRNA per mouse
  percent knockdown: 96%

## T11A, T15A, S18A (Seq ID 40): melittin peptide derivative (GIGAILKVLACGLPALIAWIKNKRKQ; melittin-like peptide derive from Apis florea)
[6]
  percent knockdown: 38%

## dimethyl-dMel I2Nle, I5Nle, T11C, I17Nle, I20Nle dMel (Seq ID 47): melittin peptide derivative (G[Nle]GA[Nle]LKVLACGLPTL[Nle]SW[Nle]KNKRKQ; also: dimethyl, site not given here, D-amino acids, positions not given here)
[5]
  percent knockdown: 78%

## QQRKRKIWSILAALGTTLVKLVAGIC-NH2 (also: retro-inverso, methoxy, position not given here) [Seq ID 95 Retroinverso Methoxy]
CDM-NAG (5×), amount in column 'siRNA' 30 mg/kg
  percent knockdown: 39%

## C-Mel G1L (Seq ID 51): melittin peptide derivative (CLIGAILKVLATGLPTLISWIKNKRKQ; N-terminal cysteine; melittin-like peptide derive from Apis florea)
[5]
  percent knockdown: 89%

## G1L, T11C dMel (Seq ID 21): melittin peptide derivative ([dL][dI]G[dA][dI][dL][dK][dV][dL][dA][dC]G[dL][dP][dT][dL][dI][dS][dW][dI][dK][dN][dK][dR][dK][dQ])
[7]
  percent knockdown: 81%

## G1L Mel (1-23) (Seq ID 71): melittin peptide derivative (LIGAILKVLATGLPTLISWIKNK; melittin-like peptide derive from Apis florea)
[3]
  percent knockdown: 69%

## G1L Mel-KLKC (Seq ID 65): melittin peptide derivative (LIGAILKVLATGLPTLISWIKNKRKQKLKC; C-terminal KLKC extension; melittin-like peptide derive from Apis florea)
[5]
  percent knockdown: 97%

## (Ac-CIGAVLKVLTTGLPALISWIKRKRQQ-NH2)2
[2]
  percent knockdown: 45%

## T11G, T15G, S18G (Seq ID 39): melittin peptide derivative (GIGAILKVLACGLPGLIGWIKNKRKQ; melittin-like peptide derive from Apis florea)
[6]
  percent knockdown: 32%

## G1dI (D form Ile at 1^st position, Seq ID 6): melittin peptide derivative ([dI]IGAILKVLATGLPTLISWIKNKRKQ)
[6]
  percent knockdown: 34%

## C-dMel G1Nle (Seq ID 52): melittin peptide derivative (C[Nle]IGAILKVLATGLPTLISWIKNKRKQ; also: D-amino acids (dMel), positions not given here)
[5]
  percent knockdown: 84%

## PEG24-GKLK-Mel G1L (Seq ID 59): melittin peptide derivative ([PEG24′]GKLKLIGAILKVLATGLPTLISWIKNKRKQ)
[6]
  percent knockdown: 85%

## PEG(5k)-KLK-dMel G1Y (Seq ID 56): melittin peptide derivative ({PEG 5k}-KLK[dY][dI]G[dA][dI][dL][dK][dV][dL][dA][dT]G[dL][dP][dT][dL][dI][dS][dW][dI][dK][dN][dK][dR][dK][dQ])
CDM-NAG (5×), 300 μg peptide per mouse, 100 μg siRNA per mouse
  percent knockdown: 72%

## G1L, I2Nle, I5Nle, I17Nle, I20Nle (Seq ID 44): melittin peptide derivative (L[Nle]GA[Nle]LKVLATGLPTL[Nle]SW[Nle]KNKRKQ)
[5]
  percent knockdown: 99%

## G1L, Mel-KKKKK (Seq ID 67): melittin peptide derivative (LIGAILKVLATGLPTLISWIKNKRKQKKKKK; C-terminal KKKKK extension; melittin-like peptide derive from Apis florea)
[3]
  percent knockdown: 96%

## G1L dMel-C (Seq ID 114): melittin peptide derivative ([dL][dI]G[dA][dI][dL][dK][dV][dL][dA][dT]G[dL][dP][dT][dL][dI][dS][dW][dI][dK][dN][dK][dR][dK][dQ]C)
[6]
  percent knockdown: 93%

## G1Y dMel (Seq ID 11): G1Y melittin peptide having D-form amino acids ([dY][dI]G[dA][dI][dL][dK][dV][dL][dA][dT]G[dL][dP][dT][dL][dI][dS][dW][dI][dK][dN][dK][dR][dK][dQ])
[7]
  percent knockdown: 95%

## G12L (Seq ID 13): melittin peptide derivative (GIGAILKVLATLLPTLISWIKNKRKQ; melittin-like peptide derive from Apis florea)
[4]
  percent knockdown: 58%
